Source: patent US7105505B2, “Benzimidazole derivatives useful as histamine H3 antagonists” (Schering Corporation, priority 2002, dated 2006)

target: T1, H3 receptors (Cavia porcellus, UniProt Q9JI35); assay: H3 Receptor Binding Assay (guinea pig brain membranes); conditions: Receptor Source Guinea pig, [3H]R-α-methyl histamine or [3H]Nα-methyl histamine
T1 construct: The source of the H3 receptors in this experiment was guinea pig brain; from tissue; host or cells: guinea pig brain membranes
Method: General Procedure for H3Receptor Binding Assay
The source of the H3 receptors in this experiment was guinea pig brain. The animals weighed 400–600 g. The brain tissue was homogenized with a solution of 50 mM Tris, pH 7.5. The final concentration of tissue in the homogenization buffer was 10% w/v. The homogenates were centrifuged at 1,000×g for 10 min. in order to remove clumps of tissue and debris. The resulting supernatants were then centrifuged at 50,000×g for 20 min. in order to sediment the membranes, which were next washed three times in homogenization buffer (50,000×g for 20 min. each). The membranes were frozen and stored at −70° C. until needed.
All compounds to be tested were dissolved in DMSO and then diluted into the binding buffer (50 mM Tris, pH 7.5) such that the final concentration was 2 μg/ml with 0.1% DMSO. Membranes were then added (400 μg of protein) to the reaction tubes. The reaction was started by the addition of 3 nM [^3H]R-α-methyl histamine (8.8 Ci/mmol) or 3 nM [^3H]N^α-methyl histamine (80 Ci/mmol) and continued under incubation at 30° C. for 30 min. Bound ligand was separated from unbound ligand by filtration, and the amount of radioactive ligand bound to the membranes was quantitated by liquid scintillation spectrometry. All incubations were performed in duplicate and the standard error was always less than 10%. Compounds that inhibited more than 70% of the specific binding of radioactive ligand to the receptor were serially diluted to determine a Ki (nM).

T1 sequence (Q9JI35 whole entry): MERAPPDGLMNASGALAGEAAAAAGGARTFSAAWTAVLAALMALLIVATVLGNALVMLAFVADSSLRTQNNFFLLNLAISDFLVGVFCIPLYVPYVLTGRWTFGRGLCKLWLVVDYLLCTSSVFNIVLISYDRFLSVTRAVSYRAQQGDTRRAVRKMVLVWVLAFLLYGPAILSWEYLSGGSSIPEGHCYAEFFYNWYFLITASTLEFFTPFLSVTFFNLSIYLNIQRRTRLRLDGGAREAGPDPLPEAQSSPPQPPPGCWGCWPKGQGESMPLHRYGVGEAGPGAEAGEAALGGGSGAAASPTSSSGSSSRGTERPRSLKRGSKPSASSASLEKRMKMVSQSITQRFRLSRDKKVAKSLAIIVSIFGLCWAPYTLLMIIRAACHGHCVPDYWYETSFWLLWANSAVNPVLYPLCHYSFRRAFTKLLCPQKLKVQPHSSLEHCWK

Compared with `Nc1cc(CN2CCC(C(=O)N3CCC(c4nc5ccc(Cl)cc5[nH]4)CC3)CC2)ccn1` [Example 3], `Nc1cc(CN2CCC(C(=O)N3CCC(n4c(-c5cc(Cl)cc(Cl)c5)nc5ccc(Cl)cc54)CC3)CC2)ccn1` [Example 54] is 2.3-fold higher in Ki: 13 nM for the first, 30 nM for the second.

Going from `Nc1cc(CN2CCC(C(=O)N3CCC(n4c(-c5ccccn5)nc5cc(F)c(F)cc54)CC3)CC2)ccn1` [Example 71] to `Nc1ncc(CN2CCC(C(=O)N3CCC(n4c(-c5ccccn5)nc5cc(F)ccc54)CC3)CC2)cn1` [Example 211], the Ki rises from 1 nM to 7 nM (7-fold).

First: Cc1cc(-c2nc3cc(F)ccc3n2C2CCN(C(=O)C3CCN(Cc4ccnc(N)c4)CC3)CC2)no1 [Example 94]
Second: Nc1cc(CN2CCC(C(=O)N3CCC(n4c(N5CCOCC5)nc5cc(F)ccc54)CC3)CC2)ccn1 [Example 120]
The Ki of the first is 3.3-fold higher: 1 nM for the first, 0.3 nM for the second.

`Nc1cc(CN2CCC(C(=O)N3CCC(n4c(C5CC5)nc5cccnc54)CC3)CC2)ccn1` [Example 170] and `Nc1cc(CN2CCC(C(=O)N3CCC(n4c(-c5ccc(F)cc5)nc5cccnc54)CC3)CC2)ccn1` [Example 173] are within 1.5-fold of each other in Ki: 0.5 nM for the first, 0.4 nM for the second.

`Nc1cc(CN2CCC(C(=O)N3CCC(n4c(-c5cc(-c6ccc(F)cc6)on5)nc5cccnc54)CC3)CC2)ccn1` [Example 195] and `Nc1ncc(CN2CCC(F)(C(=O)N3CCC(n4c(-c5ccc(F)cc5F)nc5cc(F)ccc54)CC3)CC2)cn1` [Example 254] are within 1.5-fold of each other in Ki: 10 nM for the first, 13 nM for the second.

target: T2, human histamine H3 receptor (Homo sapiens, UniProt Q9Y5N1); assay: rHu H3 Binding Assay (HEK-293 membranes); conditions: Receptor Source rHu, 1.2 nM [3H]Nα-methylhistamine
T2 construct: expressed in transfected cells
T2 sequence (Q9Y5N1 whole entry): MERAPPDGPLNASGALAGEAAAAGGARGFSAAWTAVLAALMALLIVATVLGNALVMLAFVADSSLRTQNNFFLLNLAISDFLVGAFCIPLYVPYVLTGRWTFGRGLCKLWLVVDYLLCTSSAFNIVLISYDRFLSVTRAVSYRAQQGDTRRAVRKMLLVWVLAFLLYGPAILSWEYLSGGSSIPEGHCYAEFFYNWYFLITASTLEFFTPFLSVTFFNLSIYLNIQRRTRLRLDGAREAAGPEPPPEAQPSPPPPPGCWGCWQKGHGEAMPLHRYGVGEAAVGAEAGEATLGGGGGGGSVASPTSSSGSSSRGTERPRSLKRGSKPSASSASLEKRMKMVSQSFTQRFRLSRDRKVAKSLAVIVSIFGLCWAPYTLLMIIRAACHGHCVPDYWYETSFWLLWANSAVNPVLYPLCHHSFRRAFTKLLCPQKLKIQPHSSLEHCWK
Method: General Procedure for rHu H3Binding Assay
[^3H]N^∝-methylhistamine (82 Ci/mmole) was obtained from Dupont NEN. Thioperamide was obtained from the Chemical Research Department, Schering-Plough Research Institute.
HEK-293 human embryonic kidney cells stably expressing the human histamine H3 receptor were cultured in Dulbecco's modified Eagle's medium/10% fetal calf serum/penicillin (100 U/ml)/streptomycin (100 μg/ml)/Geneticin (0.5 mg/ml) at 37° C. in a humidified 5% CO2 atmosphere. Cells were harvested between passages five and twenty at 37° C. in 5 mM EDTA/Hank's balanced salt solution and processed for membrane preparation. After low-speed centrifugation, ten min at 1000×g, they were put into ten volumes of ice-cold buffer and disrupted with a Polytron (PTA 35/2 tip, 30 sec at setting 6). After subsequent low-speed centrifugation, supernatant was centrifuged ten min at 50,000×g. The high-speed pellet was resuspended in the original volume of buffer, a sample was taken for protein assay (bicinchoninic acid, Pierce) and the suspension was centrifuged again at 50,000×g. Membranes were resuspended at 1 mg of protein/ml of buffer and frozen at −80° C. until use.
Membrane (15 μg of protein) was incubated with 1.2 nM [^3H]N^∝-methyl-histamine, without or with inhibitor compounds, in a total volume of 200 μl of buffer. Nonspecific binding was determined in the presence of 10^−5 M thioperamide. Assay mixtures were incubated for 30 min at 30° C. in polypropylene, 96-well, deep-well plates, then filtered through 0.3% polyethylenimine-soaked GF/B filters. These were washed three times with 1.2 ml of 4° C. buffer, dried in a microwave oven, impregnated with Meltilex wax scintillant and counted at 40% efficiency in a Betaplate scintillation counter (Wallac).
IC50 values were interpolated from the data or were determined from curves fit to the data with Prism nonlinear least squares curve-fitting program (GraphPad Software, San Diego, Calif.). Ki values were determined from IC50 values according to the Cheng and Prusoff equation.

`Nc1cc(CN2CCC(C(=O)N3CCC(n4c(-c5ccccn5)nc5cc(F)ccc54)CC3)CC2)ccn1` [Example 1] and `O=C(C1CCN(Cc2cc[nH]n2)CC1)N1CCC(n2c(-c3ccccn3)nc3cc(F)ccc32)CC1` [Example 442] are the same in Ki: 1 nM for the first, 1 nM for the second.

Going from `Nc1ncc(CN2CCC(F)(C(=O)N3CCC(n4c(-c5ccccn5)nc5cccnc54)CC3)CC2)cn1` [Example 5] to `Nc1ncc(CN2CCC(F)(C(=O)N3CCC(n4c(-c5cccc[n+]5[O-])nc5cccnc54)CC3)CC2)cn1` [Example 388], the Ki rises from 9 nM to 30 nM (3.3-fold). The first binds more tightly here.

`CSc1nc2cc(F)ccc2n1C1CCN(C(=O)C2CCN(Cc3ccnc(N)c3)CC2)CC1` [Example 109] and `CSc1nc2cc(F)ccc2n1C1CCN(C(=O)C2CCN(Cc3ccnnc3)CC2)CC1` [Example 493] are the same in Ki: 1 nM for the first, 1 nM for the second.

`Nc1cc(CN2CCC(F)(C(=O)N3CCC(n4c(N5CCOCC5)nc5cc(F)ccc54)CC3)CC2)ccn1` [Example 165] and `CSc1nc2cc(F)c(F)cc2n1C1CCN(C(=O)C2(F)CCN(Cc3ccnc(N)c3)CC2)CC1` [Example 574] are the same in Ki: 2 nM for the first, 2 nM for the second.

Compared with `CSc1nc2cc(F)ccc2n1C1CCN(C(=O)C2CCN(Cc3cnc(N)nc3)CC2)CC1` [Example 269], `CSc1nc2cc(Cl)ccc2n1C1CCN(C(=O)C2CCN(Cc3cnc(N)nc3)CC2)CC1` [Example 502] is 1.8-fold higher in Ki: 4 nM for the first, 7 nM for the second. The first binds more tightly here.

`CCOc1nc2cc(F)ccc2n1C1CCN(C(=O)C2(F)CCN(Cc3cnc(N)nc3)CC2)CC1` [Example 270] and `CCCOc1nc2cc(F)ccc2n1C1CCN(C(=O)C2(F)CCN(Cc3cnc(N)nc3)CC2)CC1` [Example 459] are the same in Ki: 4 nM for the first, 4 nM for the second.

`Nc1ncc(CN2CCC(F)(C(=O)N3CCC(n4c(-c5ccoc5)nc5cccnc54)CC3)CC2)cn1` [Example 281] and `CSc1nc2cccnc2n1C1CCN(C(=O)C2(F)CCN(Cc3cnc(N)nc3)CC2)CC1` [Example 315] are within 1.5-fold of each other in Ki: 4 nM for the first, 5 nM for the second.

First: CSc1nc2cc(F)ccc2n1C1CCN(C(=O)C2(F)CCN(Cc3cnc(N)nc3)CC2)CC1 [Example 290]
Second: CSc1nc2cc(Cl)ccc2n1C1CCN(C(=O)C2(F)CCN(Cc3cnc(N)nc3)CC2)CC1 [Example 625]
The Ki of the first is 3.3-fold lower: 3 nM for the first, 10 nM for the second. The first binds more tightly here.

First: COc1nc2cc(F)ccc2n1C1CCN(C(=O)C2(F)CCN(Cc3cnc(N)nc3)CC2)CC1 [Example 297]
Second: CC(C)Oc1nc2cc(F)ccc2n1C1CCN(C(=O)C2(F)CCN(Cc3cnc(N)nc3)CC2)CC1 [Example 326]
The Ki of the first is 2-fold higher: 4 nM for the first, 2 nM for the second.

Compared with `CCOc1nc2cccnc2n1C1CCN(C(=O)C2(F)CCN(Cc3cnc(N)nc3)CC2)CC1` [Example 316], `CCc1nc2cc(F)ccc2n1C1CCN(C(=O)C2(F)CCN(Cc3cnc(N)nc3)CC2)CC1` [Example 468] is 2-fold higher in Ki: 5 nM for the first, 10 nM for the second.

Compared with `O=C(N1CCC(n2c(-c3ccccn3)nc3cc(F)ccc32)CC1)C1(F)CCN(Cc2ccnnc2)CC1` [Example 423], `O=C(C1CCN(Cc2ccnnc2)CC1)N1CCC(n2c(-c3ccccn3)nc3cc(Cl)ccc32)CC1` [Example 557] is 3.8-fold higher in Ki: 5 nM for the first, 19 nM for the second.

Going from `Nc1ncc(CN2CCC(F)(C(=O)N3CCC(n4c(Oc5ccccc5)nc5cc(F)ccc54)CC3)CC2)cn1` [Example 449] to `Nc1ncc(CN2CCC(C(=O)N3CCC(n4c(SCc5ccccc5)nc5cc(F)ccc54)CC3)CC2)cn1` [Example 547], the Ki rises from 1 nM to 14 nM (14-fold).

Going from `CCCOc1nc2cc(F)ccc2n1C1CCN(C(=O)C2CCN(Cc3cnc(N)nc3)CC2)CC1` [Example 460] to `CCCc1nc2cc(F)ccc2n1C1CCN(C(=O)C2CCN(Cc3cnc(N)nc3)CC2)CC1` [Example 618], the Ki rises from 4 nM to 9 nM (2.2-fold).

`CCOc1nc2cc(F)ccc2n1C1CCN(C(=O)C2CCN(Cc3ccnnc3)CC2)CC1` [Example 512] and `COc1nc2cc(F)ccc2n1C1CCN(C(=O)C2CCN(Cc3ccnnc3)CC2)CC1` [Example 571] are the same in Ki: 2 nM for the first, 2 nM for the second.

Going from `CCCOc1nc2cccnc2n1C1CCN(C(=O)C2CCN(Cc3ccnnc3)CC2)CC1` [Example 552] to `CCCSc1nc2cccnc2n1C1CCN(C(=O)C2CCN(Cc3ccnnc3)CC2)CC1` [Example 588], the Ki rises from 4 nM to 6 nM (1.5-fold). The first binds more tightly here.

Going from `CCSc1nc2cc(C(F)(F)F)ccc2n1C1CCN(C(=O)C2CCN(Cc3cnc(N)nc3)CC2)CC1` [Example 577] to `CCc1nc2cc(F)ccc2n1C1CCN(C(=O)C2CCN(Cc3cnc(N)nc3)CC2)CC1` [Example 598], the Ki falls from 44 nM to 17 nM (2.6-fold).

Compared with `CCOc1nc2cc(Cl)ccc2n1C1CCN(C(=O)C2CCN(Cc3ccnnc3)CC2)CC1` [Example 592], `CSc1nc2cc(Cl)ccc2n1C1CCN(C(=O)C2CCN(Cc3ccnnc3)CC2)CC1` [Example 628] is 2.2-fold lower in Ki: 9 nM for the first, 4 nM for the second. The second binds more tightly here.

Going from `CSc1nc2cc(S(C)(=O)=O)ccc2n1C1CCN(C(=O)C2CCN(Cc3ccnnc3)CC2)CC1` [Example 595] to `CCCc1nc2cc(F)ccc2n1C1CCN(C(=O)C2CCN(Cc3ccnnc3)CC2)CC1` [Example 619], the Ki falls from 41 nM to 2 nM (20-fold). The second binds more tightly here.

For `Nc1cc(CCCN2CCC(C(=O)N3CCC(n4c(-c5ccccn5)nc5cccnc54)CC3)CC2)ccn1` [Example 608], the Ki was 1 nM.
